# In patent EP0258006A2, “Monoclonal antibodies reactive with chlorinated dibenzo-p-dioxins and method of preparing and using same” (WE[…] CORPORATION, priority 1986, dated 1988):
# Key:
# [1] = system: ATCC HB 9183 antibody (monoclonal antibody, IgG1, produced by hybridoma ATCC HB 9183); assay: competitive inhibition enzyme immunoassay (CIEIA) with ATCC HB 9183 culture supernatant; format: binding, BALB/c mice; details: 1:5 dilution of culture supernatant preincubated 1 hour at room temperature with various concentrations of TCDD; linear curve in Figure 3
# [2] = system: monoclonal antibodies reactive with 2,3,7,8-TCDD in hybridoma culture supernatants (the 6 of 384 cultures positive by CIEIA); assay: competitive inhibition enzyme immunoassay (CIEIA) of hybridoma culture supernatants; format: binding, BALB/c mice; details: culture supernatants preincubated with 1.0 × 10⁻⁴ M 2,3,7,8-TCDD; plates coated with BSA-adipamidoyl,3,7,8-trichlorodibenzo-p-dioxin conjugate; 6 positive cultures; 100 µM
compound,measurement,setting,value
"Clc1cc2c(cc1Cl)Oc1cc(Cl)c(Cl)cc1O2 [2,3,7,8-TCDD, 2,3,7,8-tetrachlorodibenzo-p-dioxin]","binding of antibody to free TCDD (CIEIA, Figure 3)",[1],binds directly to free TCDD
same,inhibition of antibody binding to the solid phase-bound conjugate,[2],at least 50%
